We go through 3 compounds from patent publication US20100234363A1, “HETEROCYCLIC DERIVATIVE HAVING INHIBITORY ACTIVITY ON TYPE-I 11 DATA-HYDROXYSTEROID DEHYDROGENASE” (INSTITUTE OF MEDICINAL MOLECULAR DESIGN, INC., priority 2007, published 2010).

Experiment [1] addresses Human 11β-HSD1 (Homo sapiens, UniProt P28845). The experiment is described as follows: Evaluation of compound against human 11β-HSD1 (HTRF cortisol assay). Conditions: human 11β-HSD1, cortisone 5 μM substrate, 37° C. 2 hours. Format: biochemical. The method, then: Evaluation Method of 11β-HSD1 Inhibitor (Evaluation of Compound Against Human 11β-HSD1)
(§1) After preincubating an inhibitor in a reaction solution consisting of 50 mM sodium phosphate buffer (pH 7.6), bovine serum albumin (1 mg/mL), NADPH (0.42 mg/mL), glucose-6-phosphate (1.26 mg/mL), glucose-6-phosphate dehydrogenase and an enzyme at room temperature for 30 minutes, cortisone (5 μM) which is a substrate was added (total amount 10 μL). After reacting at 37° C. for 2 hours, an XL-665-labeled cortisol solution (5 μL), and a Cryptate-labeled anti-cortisol antibody solution (5 μL) were added, a reaction was performed at room temperature for 2 hours, and fluorescence intensity (HTRF method) was measured. A cortisol concentration was calculated from a standard curve prepared using a known concentration of cortisol for each assay.
Taking a concentration of cortisol generated in the absence of the inhibitor as a control value, 50% inhibitory concentration (IC50 value) of the inhibitor against 11β-HSD1 was calculated from an inhibition curve plotting inhibition rate against the control value at each concentration of an inhibitor.

For experiment [2], the target named is Mouse 11β-HSD 1 (Mus musculus, UniProt P50172). Nature of the experiment: Evaluation of compound against mouse 11β-HSD1 (HTRF corticosterone assay). Conditions: mouse 11β-HSD1, 11-dehydrocorticosterone 2 μM substrate, 37° C. 2 hours. Format: biochemical. The method, then:
Evaluation Method of 11β-HSD1 Inhibitor (Evaluation of Compound Against Mouse 11β-HSD 1)
as §1, with “glucose-6-phosphate dehydrogenase,” for “glucose-6-phosphate dehydrogenase”, “minutes, 11-dehydrocorticosterone (2” for “minutes, cortisone (5”, “A corticosterone” for “A cortisol”, “of corticosterone” for “of cortisol”
Taking a concentration of corticosterone generated in the absence of the inhibitor as a control value, 50% inhibitory concentration (IC50 value) of the inhibitor against 11β-HSD1 was calculated from an inhibition curve plotting inhibition rate against the control value at each concentration of the inhibitor.

Sequence of Human 11β-HSD1 (P28845 whole entry): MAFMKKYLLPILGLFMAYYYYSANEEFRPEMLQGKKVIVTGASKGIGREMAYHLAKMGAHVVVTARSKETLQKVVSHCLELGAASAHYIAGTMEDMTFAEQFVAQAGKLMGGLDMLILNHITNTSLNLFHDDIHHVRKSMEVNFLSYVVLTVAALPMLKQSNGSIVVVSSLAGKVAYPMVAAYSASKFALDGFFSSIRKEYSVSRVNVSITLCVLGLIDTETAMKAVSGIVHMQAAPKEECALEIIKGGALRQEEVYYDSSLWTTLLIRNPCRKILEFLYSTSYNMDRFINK
Sequence of Mouse 11β-HSD 1 (P50172 whole entry): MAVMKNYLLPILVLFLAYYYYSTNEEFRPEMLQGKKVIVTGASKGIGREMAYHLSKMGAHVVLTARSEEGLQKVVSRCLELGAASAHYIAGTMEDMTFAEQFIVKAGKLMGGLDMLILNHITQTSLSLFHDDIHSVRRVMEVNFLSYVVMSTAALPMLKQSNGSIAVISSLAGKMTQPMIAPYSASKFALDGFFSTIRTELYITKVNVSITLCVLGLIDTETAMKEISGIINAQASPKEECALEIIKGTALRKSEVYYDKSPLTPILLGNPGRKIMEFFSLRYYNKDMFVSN

Take `CN(C1=NC(=O)C2CCCCCC2S1)C(C)(C)C` (stereo not drawn) [Compound I-158]: the values for the IC50 in experiment [1] and in experiment [2] were 190 nM and 1490 nM, respectively.

As for `CCN(C1=NC(=O)C2CC(C)(C)CCC2S1)c1ccccc1C(C)(C)C` (stereo not drawn) [Compound I-175], the IC50 in experiment [1] turned out to be 32 nM; in experiment [2], 820 nM.

Regarding `CCN(C1=NC(=O)C2CC(C)(C)CCC2S1)N1CCCCCC1` (stereo not drawn) [Compound I-195], the IC50 is 11 nM in experiment [1] and 1640 nM in experiment [2].
